Results published in the CheMixHub viscosity set.
± gives the uncertainty stated by the source.

Test: xn = mol fraction of the nth substance listed
Details: 101.33 kPa

CCOCCO + CCCCCCCC
viscosity [mPa·s]
Details	x1 = 0.0976	x1 = 0.1994	x1 = 0.3003	x1 = 0.4001	x1 = 0.5004	x1 = 0.5944	x1 = 0.6962	x1 = 0.7983	x1 = 0.8969
298.15 K	0.524 ± 0.014	0.566 ± 0.015	0.619 ± 0.017	0.687 ± 0.018	0.772 ± 0.02	0.87 ± 0.022	1.003 ± 0.025	1.179 ± 0.029	1.421 ± 0.034
303.15 K	0.49 ± 0.014	0.527 ± 0.015	0.574 ± 0.016	0.632 ± 0.017	0.71 ± 0.019	0.795 ± 0.02	0.911 ± 0.023	1.069 ± 0.026	1.279 ± 0.031
308.15 K	0.463 ± 0.013	0.494 ± 0.014	0.538 ± 0.015	0.591 ± 0.016	0.657 ± 0.017	0.732 ± 0.019	0.834 ± 0.021	0.972 ± 0.024	1.155 ± 0.028
313.15 K	0.434 ± 0.013	0.462 ± 0.013	0.5 ± 0.014	0.55 ± 0.015	0.609 ± 0.016	0.673 ± 0.018	0.763 ± 0.02	0.896 ± 0.023	1.05 ± 0.026
